This passage reports IC50 results from patent US20260297070A1, “CYCLIC [COMPOUND LEFT OUT] WRN INHIBITORS” (Nimbus Wadjet, Inc., priority 2023, published 2026).

pIC50: −log10 of the molar value.

This assay deals with T1, human Werner helicase (WRN-BV08, Uniprot Q14191, amino acids 517-1235 with L1074F point mutation) (Homo sapiens, UniProt Q14191, L1074F).
T1 construct: Uniprot Q14191, amino acids 517-1235 with L1074F point mutation; TEV-cleavable 8×His (C, cleaved yes); made in house; host or cells: Sf9 insect cells (baculovirus)
T1 sequence (Q14191 with tags, fused parts or gaps L1074F limits assumed): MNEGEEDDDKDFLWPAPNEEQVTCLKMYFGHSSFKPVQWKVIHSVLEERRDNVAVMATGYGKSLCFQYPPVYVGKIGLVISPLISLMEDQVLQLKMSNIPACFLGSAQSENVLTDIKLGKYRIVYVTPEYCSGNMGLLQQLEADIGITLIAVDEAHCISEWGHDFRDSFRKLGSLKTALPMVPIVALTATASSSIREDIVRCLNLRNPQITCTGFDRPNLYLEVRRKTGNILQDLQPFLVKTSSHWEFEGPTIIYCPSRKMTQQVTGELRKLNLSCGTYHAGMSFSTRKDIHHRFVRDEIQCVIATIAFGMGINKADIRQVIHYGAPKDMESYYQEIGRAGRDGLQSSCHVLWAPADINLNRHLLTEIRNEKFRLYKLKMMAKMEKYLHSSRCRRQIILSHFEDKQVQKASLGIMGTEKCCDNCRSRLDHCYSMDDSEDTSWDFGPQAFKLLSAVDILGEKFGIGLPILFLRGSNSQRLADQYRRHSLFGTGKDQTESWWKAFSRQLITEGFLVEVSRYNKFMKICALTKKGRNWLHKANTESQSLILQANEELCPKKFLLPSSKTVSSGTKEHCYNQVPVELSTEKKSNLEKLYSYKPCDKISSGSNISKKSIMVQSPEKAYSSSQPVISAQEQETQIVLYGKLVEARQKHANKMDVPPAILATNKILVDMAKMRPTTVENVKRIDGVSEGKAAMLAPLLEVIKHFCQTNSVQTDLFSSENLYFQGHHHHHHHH
The assay can be described thus: WRN (BV08) ADP-Glo Assay. The assay is classed as biochemical. As to conditions: 0.15 nM WRN, 5 μM ATP, 0.1 nM DNA duplex, 15 min preincubation, 60 min at 25° C., pH 7.5, 1% DMSO; read-out: ADP-Glo_hWRN_IC50. Summed up:
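0.15 nM WRN (aa 517-1235, L1074F, Sf9-expressed, tag cleaved) preincubated 15 min at 25 °C with compound, then 5 μM ATP and 0.1 nM DNA duplex added for 60 min. Buffer: 20 mM Bicine pH 7.5, 1 mM MgCl2, 10 mM KCl, 1 mM TCEP; 1% DMSO. ADP-Glo luminescence; IC50 by 4-parameter fit.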
Consider `COc1cc(C(C)N(C(=O)Cn2cc(-c3cc(F)c(F)c(F)c3)cn2)C2C=CS(=O)(=O)C2)ccn1` (single isomer, unassigned) [I-830, N-[(3R**)-1,1-dioxo-2,3-dihydro-1lambda6-thiophen-3-yl]-N-[(1R*)-1-(2-methoxypyridin-4-yl)ethyl]-2-[4-(3,4,5-trifluorophenyl)-1H-pyrazol-1-yl]acetamide], for which the pIC50 was 5.00 to 5.30.
With `O=C(C1CC(C(F)(F)F)CO1)N(Cc1ccncc1)C1C=CS(=O)(=O)C1` (stereo not drawn) [I-651, N-(1,1-dioxo-2,3-dihydro-1lambda6-thiophen-3-yl)-N-[(pyridin-4-yl)methyl]-4-(trifluoromethyl)oxolane-2-carboxamide], the pIC50 was below 4.30.
The same measure for `CC(C)(O)c1cc(CN(C(=O)C(c2ccc(-c3ccc(F)c(F)c3)cc2F)n2cccn2)C2C=CS(=O)(=O)C2)ccn1` (single isomer, unassigned) [I-669, (2R*)-N-[(3R**)-1,1-dioxo-2,3-dihydro-1lambda6-thiophen-3-yl]-N-{[2-(2-hydroxypropan-2-yl)pyridin-4-yl]methyl}-2-(1H-pyrazol-1-yl)-2-{3,3′,4′-trifluoro-[1,1′-biphenyl]-4-yl}acetamide]: above 6.30; for `CC(C(=O)N(Cc1ccnc(C(C)(C)O)c1)C1C=CS(=O)(=O)C1)n1cc(-c2cc(F)c(F)c(F)c2)cn1` (single isomer, unassigned) [I-776, (2R*)-N-[(3R**)-1,1-dioxo-2,3-dihydro-1lambda6-thiophen-3-yl]-N-{[2-(2-hydroxypropan-2-yl)pyridin-4-yl]methyl}-2-[4-(3,4,5-trifluorophenyl)-1H-pyrazol-1-yl]propanamide]: above 6.30; for `CC(C)(O)c1cc(CN(C(=O)Cc2ccc(-c3ccc(F)cc3)cc2F)C2C=CS(=O)(=O)C2)ccn1` (stereo not drawn) [I-52, 2-{3,4′-difluoro-[1,1′-biphenyl]-4-yl}-N-(1,1-dioxo-2,3-dihydro-1lambda6-thiophen-3-yl)-N-{[2-(2-hydroxypropan-2-yl)pyridin-4-yl]methyl}acetamide]: above 6.30.
In the case of `O=C([C@H]1[C@@H]2CCC[C@@H]21)N(Cc1ccncc1)C1C=CS(=O)(=O)C1` (stereo partly drawn) [I-583, (1R,5S,6R)-N-(1,1-dioxo-2,3-dihydro-1lambda6-thiophen-3-yl)-N-[(pyridin-4-yl)methyl]bicyclo[3.1.0]hexane-6-carboxamide], the pIC50 is below 4.30.
`COc1cc(CN(C(=O)C(OCc2cnn(C)c2)c2ccc(-c3ccc(F)c(F)c3)cc2F)[C@@H]2C=CS(=O)(=O)C2)ccn1` (single isomer, unassigned) [I-742, (2R*)-N-[(3R)-1,1-dioxo-2,3-dihydro-1lambda6-thiophen-3-yl]-N-[(2-methoxypyridin-4-yl)methyl]-2-[(1-methyl-1H-pyrazol-4-yl)methoxy]-2-{3,3′,4′-trifluoro-[1,1′-biphenyl]-4-yl}acetamide]: the pIC50 was 5.30 to 6.30.
Regarding `COc1cc(CN(C(=O)Cc2ccc(-c3ccc(F)cc3)cc2)C2C=CS(=O)(=O)C2)ccn1` (stereo not drawn) [I-158, N-(1,1-dioxo-2,3-dihydro-1lambda6-thiophen-3-yl)-2-{4′-fluoro-[1,1′-biphenyl]-4-yl}-N-[(2-methoxypyridin-4-yl)methyl]acetamide], the pIC50 was 5.30 to 6.30.
Turning to `CNC(=O)CC(C(=O)N(Cc1ccncc1)C1C=CS(=O)(=O)C1)c1ccc(-c2ccc(F)cc2)cc1` (stereo not drawn) [I-562, N-(1,1-dioxo-2,3-dihydro-1lambda6-thiophen-3-yl)-2-{4′-fluoro-[1,1′-biphenyl]-4-yl}-N′-methyl-N-[(pyridin-4-yl)methyl]butanediamide], the pIC50 is below 4.30.
On to `O=C(Cn1nc(-c2ccc(F)cc2)oc1=O)N(Cc1ccncc1)C1C=CS(=O)(=O)C1` (stereo not drawn) [I-349, N-(1,1-dioxo-2,3-dihydro-1lambda6-thiophen-3-yl)-2-[5-(4-fluorophenyl)-2-oxo-2,3-dihydro-1,3,4-oxadiazol-3-yl]-N-[(pyridin-4-yl)methyl]acetamide], for which the pIC50 was 4.30 to 5.00.
For the compound `CN(C)C(=O)C(C(=O)N(Cc1ccnc(C(C)(C)O)c1)C1C=CS(=O)(=O)C1)c1ccc(-c2ccc(F)cc2)cc1F` (single isomer, unassigned) [I-12, (2R**)-2-{3,4′-difluoro-[1,1′-biphenyl]-4-yl}-N-[(3R*)-1,1-dioxo-2,3-dihydro-1lambda6-thiophen-3-yl]-N-{[2-(2-hydroxypropan-2-yl)pyridin-4-yl]methyl}-N′,N′-dimethylpropanediamide], the pIC50 was above 6.30.
In the case of `COc1cc(CN(C(=O)Cc2ccc(-c3ccc(F)c(F)c3)cc2F)C2C=CS(=O)(=O)C2)ccn1` (single isomer, unassigned) [I-400], the pIC50 was below 4.30.
On to `COc1cccc(CN(C(=O)Cc2ccc(-n3cccc3)cc2)C2C=CS(=O)(=O)C2)c1` (stereo not drawn) [I-234, N-(1,1-dioxo-2,3-dihydro-1lambda6-thiophen-3-yl)-N-[(3-methoxyphenyl)methyl]-2-[4-(1H-pyrrol-1-yl)phenyl]acetamide], for which the pIC50 is 5.00 to 5.30.
`O=C(C1CC(c2ccc(F)cc2)C1)N(Cc1ccncc1)C1C=CS(=O)(=O)C1` (stereo not drawn) [I-614, N-(1,1-dioxo-2,3-dihydro-1lambda6-thiophen-3-yl)-3-(4-fluorophenyl)-N-[(pyridin-4-yl)methyl]cyclobutane-1-carboxamide]: the pIC50 was below 4.30.
For the compound `O=C(Cc1ccc(-c2ccc(F)cc2)c(C(F)F)c1)N(Cc1ccncc1)C1C=CS(=O)(=O)C1` (stereo not drawn) [I-401, 2-[2-(difluoromethyl)-4′-fluoro-[1,1′-biphenyl]-4-yl]-N-(1,1-dioxo-2,3-dihydro-1lambda6-thiophen-3-yl)-N-[(pyridin-4-yl)methyl]acetamide], the pIC50 is below 4.30.
`O=C(Cc1ccc(N2CC(F)(F)C2)cc1)N(Cc1ccncc1)C1C=CS(=O)(=O)C1` (stereo not drawn) [I-482, 2-[4-(3,3-difluoroazetidin-1-yl)phenyl]-N-(1,1-dioxo-2,3-dihydro-1lambda6-thiophen-3-yl)-N-[(pyridin-4-yl)methyl]acetamide]: the pIC50 was below 4.30.
With `O=C(Cc1cnc(C(F)(F)F)cn1)N(Cc1ccncc1)C1C=CS(=O)(=O)C1` (stereo not drawn) [I-627, N-(1,1-dioxo-2,3-dihydro-1lambda6-thiophen-3-yl)-N-[(pyridin-4-yl)methyl]-2-[5-(trifluoromethyl)pyrazin-2-yl]acetamide], the pIC50 is below 4.30.
For `O=C(c1ccc(-n2cccc2)cc1)N(Cc1ccccc1)C1C=CS(=O)(=O)C1` (stereo not drawn) [I-486, N-benzyl-N-(1,1-dioxo-2,3-dihydro-1lambda6-thiophen-3-yl)-4-(1H-pyrrol-1-yl)benzamide], the pIC50 is below 4.30.
In the case of `O=C(Cc1ccc(S(F)(F)(F)(F)F)cc1)N(Cc1noc(C2CC2)n1)C1C=CS(=O)(=O)C1` (stereo not drawn) [I-644, N-[(5-cyclopropyl-1,2,4-oxadiazol-3-yl)methyl]-N-(1,1-dioxo-2,3-dihydro-1lambda6-thiophen-3-yl)-2-[4-(pentafluoro-lambda6-sulfanyl)phenyl]acetamide], the pIC50 is 5.30 to 6.30.
As to `COc1cc(CN(C(=O)C(OCCO)c2ccc(-c3ccc(F)c(F)c3)cc2F)[C@@H]2C=CS(=O)(=O)C2)ccn1` (stereo partly drawn) [I-603, N-[(3R)-1,1-dioxo-2,3-dihydro-1lambda6-thiophen-3-yl]-2-(2-hydroxyethoxy)-N-[(2-methoxypyridin-4-yl)methyl]-2-{3,3′,4′-trifluoro-[1,1′-biphenyl]-4-yl}acetamide], the pIC50 was above 6.30.
Take `COc1cc(CN(C(=O)Cc2ccc(-n3cccc3)cc2F)C2C=CS(=O)(=O)C2)ccn1` (stereo not drawn) [I-95, N-(1,1-dioxo-2,3-dihydro-1lambda6-thiophen-3-yl)-2-[2-fluoro-4-(1H-pyrrol-1-yl)phenyl]-N-[(2-methoxypyridin-4-yl)methyl]acetamide]: the pIC50 is 5.30 to 6.30.
Regarding `COCC(C(=O)N(Cc1ccnc(C(C)(C)O)c1)C1C=CS(=O)(=O)C1)n1cc(-c2ccccc2)cn1` (stereo not drawn) [I-324, N-(1,1-dioxo-2,3-dihydro-1lambda6-thiophen-3-yl)-N-{[2-(2-hydroxypropan-2-yl)pyridin-4-yl]methyl}-3-methoxy-2-(4-phenyl-1H-pyrazol-1-yl)propanamide], the pIC50 is 4.30 to 5.00.
As to `O=C(CC12CC(c3ccccc3)(C1)C2)N(Cc1ccncc1)C1C=CS(=O)(=O)C1` (stereo not drawn) [I-439, N-(1,1-dioxo-2,3-dihydro-1lambda6-thiophen-3-yl)-2-{3-phenylbicyclo[1.1.1]pentan-1-yl}-N-[(pyridin-4-yl)methyl]acetamide], the pIC50 was below 4.30.
On to `O=C(Cc1ccc(-c2ccc(F)cc2)cc1CO)N(Cc1ccncc1)C1C=CS(=O)(=O)C1` (stereo not drawn) [I-350, N-(1,1-dioxo-2,3-dihydro-1lambda6-thiophen-3-yl)-2-[4′-fluoro-3-(hydroxymethyl)-[1,1′-biphenyl]-4-yl]-N-[(pyridin-4-yl)methyl]acetamide], for which the pIC50 was 4.30 to 5.00.
Regarding `O=C(Cc1ccc(N2CCC2)cc1)N(Cc1ccncc1)C1C=CS(=O)(=O)C1` (stereo not drawn) [I-461, 2-[4-(azetidin-1-yl)phenyl]-N-(1,1-dioxo-2,3-dihydro-1lambda6-thiophen-3-yl)-N-[(pyridin-4-yl)methyl]acetamide], the pIC50 was below 4.30.
In the case of `COc1ccc(CN(C(=O)Cc2ccc(-n3cccc3)cc2)C2C=CS(=O)(=O)C2)cc1OC` (stereo not drawn) [I-280, N-[(3,4-dimethoxyphenyl)methyl]-N-(1,1-dioxo-2,3-dihydro-1lambda6-thiophen-3-yl)-2-[4-(1H-pyrrol-1-yl)phenyl]acetamide], the pIC50 is 4.30 to 5.00.
As for `O=C(Cn1cc(-c2ccc(F)cc2)cn1)N(Cc1nc(C2CC2)cs1)C1C=CS(=O)(=O)C1` (stereo not drawn) [I-49, N-[(4-cyclopropyl-1,3-thiazol-2-yl)methyl]-N-(1,1-dioxo-2,3-dihydro-1lambda6-thiophen-3-yl)-2-[4-(4-fluorophenyl)-1H-pyrazol-1-yl]acetamide], the figure is above 6.30.
